{"source": "patent US20080085881A1", "about": "“Stop-and-go oxaliplatin treatment regimens” (priority 2006, published 2008)", "assay_type_in_all_cases": "in vivo, patients", "key": {"[1]": {"tested_on": "advanced colorectal cancer", "experiment": "OPTIMOX1 study: FOLFOX4 until progression (arm A) versus stop-and-go FOLFOX7 (arm B)", "settings": "OPTIMOX1, previously untreated advanced colorectal cancer", "description": "The OPTIMOX1 study examined the effect of oxaliplatin reintroduction in previously untreated patients with advanced colorectal cancer. The details of this study have been recently published by Tournigand et al., J. Clin. Oncol. (January 2006);24:394, and they are incorporated herein by reference. Two different FOLFOX regimens were used in the study: FOLFOX4 and FOLFOX7. The FOLFOX4 regimen comprises oxaliplatin 85 mg/m^2 given as a 2-hour infusion on day 1, leucovorin 200 mg/m^2 given as a 2-hour infusion on days 1 and 2, and 5-FU given on days 1 and 2 as a bolus of 400 mg/m^2 that is followed directly by a 22-hour infusion of 5-FU 600 mg/m^2 on each day. The oxaliplatin infusion on day 1 is given concurrently with leucovorin, and on each day the 5-FU bolus directly follows the 2-hour infusion of leucovorin. FOLFOX7 comprises oxaliplatin 130 mg/m^2 and leucovorin 200 mg/m^2 given concurrently as 2-hour infusions on day 1, followed directly by a 46 hour infusion of 5-FU at 2400 mg/m^2. In some patients, the I-leucovorin isomer was used, but at half the mg/m^2 dosage for dI-leucovorin.\nPatients were randomized to either FOLFOX4 every 2 weeks until progression (arm A), or FOLFOX7 for 6 cycles, maintenance with leucovorin-5-FU but without oxaliplatin for 12 […], and reintroduction of FOLFOX7 (arm B). […]"}, "[2]": {"tested_on": "advanced colorectal cancer", "experiment": "Retrospective analysis of OPTIMOX1: effect of oxaliplatin reintroduction on overall survival (Cox model, centers grouped by reintroduction class)", "description": "A retrospective analysis was used to evaluate the effect of oxaliplatin reintroduction on overall survival. The percentage of patients with oxaliplatin reintroduction was calculated in each center regardless of treatment arm, number of patients, or whether reintroduction was per protocol. A Cox model was used to analyze the impact of oxaliplatin reintroduction on survival, after adjustment for all baseline covariates, and using random effects to account for the fact that the percentage of patients with oxaliplatin reintroduction was estimated in each center. Centers were grouped by percentage of oxaliplatin reintroduction into 4 reintroduction classes defined according to the percentage of patients with oxaliplatin reintroduction (0, 1-20, 21-40, and >40). The hazard ratio (HR; adjusted for all baseline covariates) was calculated for each reintroduction class, using centers with no reintroduction (0%) as the reference group."}, "[3]": {"experiment": "OPTIMOX1 study: neurotoxicity", "settings": "stopping oxaliplatin after the sixth cycle", "description": "Sensory neurotoxicity can be measured using known techniques and graded using defined criteria. For example, the National Cancer Institute Common Toxicity Criteria (NCI CTC) version 2.0 can be used to grade sensory neuropathy. Using these criteria, an NCI grade of 0 means that there is no change associated with the treatment. NCI grade 1 indicates the loss of deep tendon reflexes or paresthesia (including tingling) not interfering with function. […] NCI Grade 3 indicates sensory loss or paresthesia that interferes with activities of daily living. NCI Grade 4 is reserved for permanent sensory loss that interferes with function.\nThe OPTIMOX1 study examined the effect of oxaliplatin reintroduction in previously untreated patients with advanced colorectal cancer. The details of this study have been recently published by Tournigand et al., J. Clin. Oncol. (January 2006);24:394, and they are incorporated herein by reference. Two different FOLFOX regimens were used in the study: FOLFOX4 and FOLFOX7. The FOLFOX4 regimen comprises oxaliplatin 85 mg/m^2 given as a 2-hour infusion on day 1, leucovorin 200 mg/m^2 given as a 2-hour infusion on days 1 and 2, and 5-FU given on days 1 and 2 as a bolus of 400 mg/m^2 that is followed directly by a 22-hour infusion of 5-FU 600 mg/m^2 on each day. […]"}}}
{"smiles": "O=C1[O][Pt]2([NH][C@@H]3CCCC[C@H]3[NH]2)[O]C1=O", "note": "[oxaliplatin]", "values": [{"measurement": "prognostic value of oxaliplatin reintroduction for overall survival", "setting": "[1]", "value": "independent prognostic factor for improved overall survival"}, {"measurement": "Median survival", "setting": "[2]; >40% reintroduction class", "value": 23, "unit": "months"}, {"measurement": "impact of percentage of patients with oxaliplatin reintroduction on survival", "setting": "[2]; after adjustment for all other factors, p<0.001", "value": "highly significant impact on survival"}, {"measurement": "impact of reintroduction class on survival", "setting": "[2]; after adjustment for all other factors, p=0.02", "value": "significant impact on survival"}, {"measurement": "Adjusted survival hazard ratio (95% C.I.)", "setting": "[2]; centers with 0% patients with oxaliplatin reintroduction (reference group)", "value": "1.00 (reference)"}, {"measurement": "Adjusted survival hazard ratio (95% C.I.)", "setting": "[2]; centers with 1–20% patients with oxaliplatin reintroduction, versus 0% reference", "value": "0.91 (0.56–1.48)"}, {"measurement": "Adjusted survival hazard ratio (95% C.I.)", "setting": "[2]; centers with 21–40% patients with oxaliplatin reintroduction, versus 0% reference", "value": "0.78 (0.50–1.21)"}, {"measurement": "Adjusted survival hazard ratio (95% C.I.)", "setting": "[2]; centers with >40% patients with oxaliplatin reintroduction, versus 0% reference", "value": "0.59 (0.38–0.91)"}, {"measurement": "Median survival", "setting": "[2]; reference group (0% reintroduction)", "value": 15, "unit": "months"}, {"measurement": "risk of grade 3 or 4 neurotoxicity", "setting": "[3]", "value": "reduced risk"}]}
